Residues, ends and D or L forms follow the SMILES beside them.
Legend:
Type in all cases: physicochemical
[1] = Usable mediums: solubility and gel formation, conventional art vs palmitoyl-Gly-His; details: wide variety of mediums including 50 mM citrate buffer pH 5, 50 mM acetate buffer pH 5, ethanol/water with 80% or more ethanol
[2] = Gelation of free N-palmitoyl-Gly-His in 65% (w/w) propylene glycol aqueous solution containing lactic acid and potassium lactate; details: 65% (w/w) propylene glycol aqueous solution with 5% (w/w) potassium lactate:lactic acid (95:5)
Procedure: Free N-palmitoyl-Gly-His (25 mg) obtained in Example 4 was placed in a screw tube (Maruemu Corp., No. 7). Sixty-five percent (w/w) propylene glycol aqueous solution was added so as to have a concentration of 0.25% (w/v), and a mixture of potassium lactate:lactic acid (95:5) was further added so as to have a concentration of 5% (w/w) with respect to the whole solution. The mixture was heated with a dry bath incubator (manufactured by First Gene) at 75° C. for 10 minutes. The obtained solution was transferred into a spray vial (Maruemu Corp., No. 3L), and allowed to cool to room temperature.
Free N-palmitoyl-Gly-His (80 mg) obtained in Example 4 was placed into a screw tube (Maruemu Corp., No. 7). Sixty-five percent (w/w) propylene glycol aqueous solution was added so as to have a concentration of 0.2% (w/v), and a mixture of potassium lactate:lactic acid (95:5) was further added so as to have a concentration of 5% (w/w) with respect to the whole solution. The mixture was heated with a dry bath incubator (manufactured by First Gene) at 93° C. for 5 minutes. The obtained solution was transferred into a spray vial (Maruemu Corp., No. 3L), and allowed to cool to room temperature.

[3] = Evaluation of gelation of free N-palmitoyl-Gly-His in glycerin solution
Procedure: Free N-palmitoyl-Gly-His prepared in Example 4 was placed into a screw tube (Maruemu No. 1, manufactured by Maruemu Corp.). Each of the glycerin solutions having various concentrations shown in Table 5 was added into the screw tube so as to have a free N-palmitoyl-Gly-His concentration of 0.2%, 0.25%, 0.5%, or 1% (w/v). The mixture was heated at 100° C. with a constant temperature heat block (manufactured by Nippon Genetics Co., Ltd.), and then allowed to stand at room temperature.
In Table, a sample that formed a gel is shown as “O”, a sample that partially formed a gel is shown as “A”, and a sample without evaluation is shown as “-”.

[4] = Evaluation of gelation of free N-palmitoyl-Gly-His in water and at various pHs; parameters: key: a sample that formed a gel is shown as “O”; a sample that formed a sol is shown as “X”; a sample without evaluation is shown as “-”
Procedure: Free N-palmitoyl-Gly-His prepared in Example 4 was placed into a screw tube (Maruemu No. 1, manufactured by Maruemu Corp.). Each of the various solutions shown in Table 4 was added into the screw tube so as to have a free N-palmitoyl-Gly-His (also called Pal-GH (free)) concentration of 0.1%, 0.2%, 0.5%, 1%, or 2% (w/v). The mixture was heated at 100° C. with a constant temperature heat block (manufactured by Nippon Genetics Co., Ltd.), and then allowed to stand at room temperature.
In Table, a sample that formed a gel is shown as “O”, a sample that formed a sol is shown as “X”, and a sample without evaluation is shown as “-”.

[5] = Evaluation of gelation of free N-palmitoyl-Gly-His in propylene glycol (PG) solution; parameters: key: a sample that formed a gel is shown as “O”; a sample that partially formed a gel is shown as “A”; a sample that formed no gel is shown as “X”
Procedure: Free N-palmitoyl-Gly-His prepared in Example 4 was placed into a screw tube (Maruemu No. 1, manufactured by Maruemu Corp.). Each of the propylene solutions having various concentrations shown in Table 6 was added into the screw tube so as to have a free N-palmitoyl-Gly-His concentration of 0.25%, 0.5%, or 1% (w/v). The mixture was heated at 100° C. with a constant temperature heat block (manufactured by Nippon Genetics Co., Ltd.), and then allowed to stand at room temperature.
In Table, a sample that formed a gel is shown as “O”, a sample that partially formed a gel is shown as “A”, and a sample that formed no gel is shown as “X”.

## CCCCCCCCCCCCCCCC(=O)NCC(=O)N[C@@H](Cc1c[nH]cn1)C(=O)O [Example 4, N-Palmitoyl-Gly-His] (HELM PEPTIDE1{[CCCCCCCCCCCCCCCC(=O)[*:2]].G.H}$$$$V2.0)
[1]
  Gel formation: can form a gel
[2]; 0.2% (w/v), heated 93° C., 5 minutes
  Gelation: gelation
[2]; 0.25% (w/v), heated 75° C., 10 minutes
  Gelation: gelation
[3]; 0.2% (w/v), mass fraction glycerin/water + glycerin 0.1
  Gelation: Δ
[3]; 0.2% (w/v), mass fraction glycerin/water + glycerin 0.3
  Gelation: Δ
[3]; 0.2% (w/v), mass fraction glycerin/water + glycerin 0.5
  Gelation: ◯
[3]; 0.2% (w/v), mass fraction glycerin/water + glycerin 0.6
  Gelation: ◯
[3]; 0.2% (w/v), mass fraction glycerin/water + glycerin 0.7
  Gelation: ◯
[3]; 0.25% (w/v), mass fraction glycerin/water + glycerin 0.1
  Gelation: ◯
[3]; 0.25% (w/v), mass fraction glycerin/water + glycerin 0.3
  Gelation: ◯
[3]; 0.25% (w/v), mass fraction glycerin/water + glycerin 0.4
  Gelation: ◯
[3]; 0.25% (w/v), mass fraction glycerin/water + glycerin 0.5
  Gelation: ◯
[3]; 0.25% (w/v), mass fraction glycerin/water + glycerin 0.6
  Gelation: ◯
[3]; 0.25% (w/v), mass fraction glycerin/water + glycerin 0.7
  Gelation: ◯
[3]; 0.5% (w/v), mass fraction glycerin/water + glycerin 0.1
  Gelation: ◯
[3]; 0.5% (w/v), mass fraction glycerin/water + glycerin 0.3
  Gelation: ◯
[3]; 0.5% (w/v), mass fraction glycerin/water + glycerin 0.4
  Gelation: ◯
[3]; 0.5% (w/v), mass fraction glycerin/water + glycerin 0.5
  Gelation: ◯
[3]; 0.5% (w/v), mass fraction glycerin/water + glycerin 0.6
  Gelation: ◯
[3]; 0.5% (w/v), mass fraction glycerin/water + glycerin 0.7
  Gelation: ◯
[3]; 1.0% (w/v), mass fraction glycerin/water + glycerin 0.1
  Gelation: ◯
[3]; 1.0% (w/v), mass fraction glycerin/water + glycerin 0.3
  Gelation: ◯
[3]; 1.0% (w/v), mass fraction glycerin/water + glycerin 0.4
  Gelation: ◯
[3]; 1.0% (w/v), mass fraction glycerin/water + glycerin 0.5
  Gelation: ◯
[3]; 1.0% (w/v), mass fraction glycerin/water + glycerin 0.6
  Gelation: ◯
[3]; 1.0% (w/v), mass fraction glycerin/water + glycerin 0.7
  Gelation: ◯
[4]; 0.1% (w/v), phosphate buffer solution pH 3
  Gelation: ◯
[4]; 0.1% (w/v), phosphoric acid aqueous solution pH 2
  Gelation: ◯
[4]; 0.1% (w/v), water
  Gelation: X
[4]; 0.2% (w/v), phosphate buffer solution pH 3
  Gelation: ◯
[4]; 0.2% (w/v), phosphate buffer solution pH 5
  Gelation: ◯
[4]; 0.2% (w/v), phosphate buffer solution pH 6
  Gelation: ◯
[4]; 0.2% (w/v), phosphoric acid aqueous solution pH 2
  Gelation: ◯
[4]; 0.2% (w/v), water
  Gelation: X
[4]; 0.5% (w/v), phosphate buffer solution pH 3
  Gelation: ◯
[4]; 0.5% (w/v), phosphate buffer solution pH 5
  Gelation: ◯
[4]; 0.5% (w/v), phosphate buffer solution pH 6
  Gelation: ◯
[4]; 0.5% (w/v), phosphate buffer solution pH 7.5
  Gelation: ◯
[4]; 0.5% (w/v), phosphate buffer solution pH 9
  Gelation: X
[4]; 0.5% (w/v), phosphate buffer solution pH 10
  Gelation: X
[4]; 0.5% (w/v), phosphoric acid aqueous solution pH 2
  Gelation: ◯
[4]; 0.5% (w/v), water
  Gelation: X
[4]; 1.0% (w/v), phosphate buffer solution pH 5
  Gelation: ◯
[4]; 1.0% (w/v), phosphate buffer solution pH 6
  Gelation: ◯
[4]; 1.0% (w/v), phosphate buffer solution pH 7.5
  Gelation: ◯
[4]; 1.0% (w/v), phosphate buffer solution pH 9
  Gelation: ◯
[4]; 1.0% (w/v), phosphate buffer solution pH 10
  Gelation: ◯
[4]; 1.0% (w/v), water
  Gelation: ◯
[4]; 2.0% (w/v), phosphate buffer solution pH 9
  Gelation: ◯
[4]; 2.0% (w/v), phosphate buffer solution pH 10
  Gelation: ◯
[4]; 2.0% (w/v), water
  Gelation: ◯
[5]; 0.25% (w/v), mass fraction PG/water + PG 0.1
  Gelation: Δ
[5]; 0.25% (w/v), mass fraction PG/water + PG 0.2
  Gelation: Δ
[5]; 0.25% (w/v), mass fraction PG/water + PG 0.3
  Gelation: Δ
[5]; 0.25% (w/v), mass fraction PG/water + PG 0.5
  Gelation: ◯
[5]; 0.25% (w/v), mass fraction PG/water + PG 0.7
  Gelation: ◯
[5]; 0.25% (w/v), mass fraction PG/water + PG 1.0
  Gelation: X
[5]; 0.5% (w/v), mass fraction PG/water + PG 0.1
  Gelation: Δ
[5]; 0.5% (w/v), mass fraction PG/water + PG 0.2
  Gelation: Δ
[5]; 0.5% (w/v), mass fraction PG/water + PG 0.3
  Gelation: ◯
[5]; 0.5% (w/v), mass fraction PG/water + PG 0.5
  Gelation: ◯
[5]; 0.5% (w/v), mass fraction PG/water + PG 0.7
  Gelation: ◯
[5]; 0.5% (w/v), mass fraction PG/water + PG 1.0
  Gelation: X
[5]; 1.0% (w/v), mass fraction PG/water + PG 0.1
  Gelation: ◯
[5]; 1.0% (w/v), mass fraction PG/water + PG 0.2
  Gelation: ◯
[5]; 1.0% (w/v), mass fraction PG/water + PG 0.3
  Gelation: ◯
[5]; 1.0% (w/v), mass fraction PG/water + PG 0.5
  Gelation: ◯
[5]; 1.0% (w/v), mass fraction PG/water + PG 0.7
  Gelation: ◯
[5]; 1.0% (w/v), mass fraction PG/water + PG 1.0
  Gelation: X
